Molecules are shown by their SMILES. Converted amounts (≈) assume the structure as drawn.

The first assay concerns Mycobacterium bovis BCG cells.
Test: not given
It is filed as cell-based.
Conditions: not given
With `COc1ccc(C=CC(=O)c2ccccc2)cc1OC` [Compound 1a, 3-(3,4-Dimethoxyphenyl)-1-phenylprop-2-en-1-one], the “proportion of cells showing morphological changes” value worked out at 76%.

A further assay deals with J774 cells. In words: MTT assay for cytotoxicity. It is filed as cell-based. To be noted: Mus musculus, J774, 24 h, read-out: J-774 (IC50). For orientation: Tetrazolium assays rely on reduction of a dye to a coloured formazan, in cell work by metabolically active cells.
As to `COc1ccc(C=CC(=O)c2ccc(Cl)cc2)cc1OC` [Compound 1g, 1-(4-Chlorophenyl)-3-(3,4-dimethoxyphenyl)prop-2-en-1-one], the IC50 (usually the concentration needed to halve the response being measured) worked out at 12.5 µg/mL (≈ 41.3 µM).
Consider `COc1ccc(C=CC(=O)c2ccccc2C)cc1OC` [Compound 1m, 3-(3,4-Dimethoxyphenyl)-1-(o-tolyl)prop-2-en-1-one], for which the IC50 came to 25 µg/mL (≈ 88.5 µM).
For `COc1ccc(C=CC(=O)c2cccc(Cl)c2)cc1OC` [Compound 1e, 1-(3-Chlorophenyl)-3-(3,4-dimethoxyphenyl)prop-2-en-1-one], the IC50 was 12.5 µg/mL (≈ 41.3 µM).
On the same count and under the same terms, under `COc1ccc(C=CC(=O)c2ccccc2Cl)cc1OC` [Compound 1f, 1-(2-Chlorophenyl)-3-(3,4-dimethoxyphenyl)prop-2-en-1-one] stands 12.5 µg/mL (≈ 41.3 µM); under `COc1ccc(C=CC(=O)c2ccc(C)cc2)cc1OC` [Compound 1j, 3-(3,4-Dimethoxyphenyl)-1-(p-tolyl)prop-2-en-1-one], 25 µg/mL (≈ 88.5 µM).
Still for that read-out and setting: with `COc1ccc(C=CC(=O)c2ccccc2)cc1OC` [Compound 1a, 3-(3,4-Dimethoxyphenyl)-1-phenylprop-2-en-1-one] the figure was 50 µg/mL (≈ 186 µM); with `COc1ccc(C=CC(=O)c2ccc([N+](=O)[O-])cc2)cc1OC` [Compound 1n, 3-(3,4-Dimethoxyphenyl)-1-(4-nitrophenyl)prop-2-en-1-one], 50 µg/mL (≈ 160 µM).
On the same count and under the same terms, under `COc1ccc(C=CC(=O)c2ccccc2Br)cc1OC` [Compound 1c, 1-(2-Bromophenyl)-3-(3,4-dimethoxyphenyl)prop-2-en-1-one] stands 25 µg/mL (≈ 72 µM); under `COc1ccc(C=CC(=O)c2ccc(-c3ccccc3)cc2)cc1OC` [Compound 1k, 1-([1,1'-Biphenyl]-4-yl)-3-(3,4-dimethoxyphenyl)prop-2-en-1-one], 25 µg/mL (≈ 72.6 µM); under `COc1ccc(C=CC(=O)c2cccc(Br)c2)cc1OC` [Compound 1b, 1-(3-Bromophenyl)-3-(3,4-dimethoxyphenyl)prop-2-en-1-one], 25 µg/mL (≈ 72 µM).
With `COc1ccc(C=CC(=O)c2ccc(Br)cc2)cc1OC` [Compound 1d, 1-(4-Bromophenyl)-3-(3,4-dimethoxyphenyl)prop-2-en-1-one], the IC50 turned out to be 25 µg/mL (≈ 72 µM).

For another assay, the system named is mycolic acid biosynthesis in M. bovis BCG.
Test: not given
Conditions: not given
It is filed as cell-based, Mycobacterium bovis BCG.
With `COc1ccc(C=CC(=O)c2ccccc2)cc1OC` [Compound 1a, 3-(3,4-Dimethoxyphenyl)-1-phenylprop-2-en-1-one], the FAMEs entry is recorded as “accumulation of FAMEs in a dose-dependent manner”; the “production of α- and k-MAMEs” value is “dose-dependent decrease”.

These data come from paper PMC7388970 (The Cell Surface, 2020).
